In experiment [1] the target is T1, Prostaglandin D2 receptor (Homo sapiens, UniProt Q13258).
T1 sequence (Q13258 whole entry): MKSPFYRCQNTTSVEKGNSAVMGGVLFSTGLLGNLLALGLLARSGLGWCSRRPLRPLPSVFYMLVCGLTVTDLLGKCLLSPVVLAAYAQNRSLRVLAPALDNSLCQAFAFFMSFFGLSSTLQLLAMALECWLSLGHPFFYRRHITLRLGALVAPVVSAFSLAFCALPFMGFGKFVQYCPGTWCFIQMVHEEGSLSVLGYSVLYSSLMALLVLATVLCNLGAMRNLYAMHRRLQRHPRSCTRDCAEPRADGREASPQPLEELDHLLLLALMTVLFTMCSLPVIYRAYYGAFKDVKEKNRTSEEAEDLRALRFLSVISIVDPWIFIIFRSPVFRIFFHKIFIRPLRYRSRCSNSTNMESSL
Nature of the experiment: In vitro inhibition of cAMP formation evoked by prostaglandin D2 receptor in human platelets. It is filed as functional.

The target of experiment [2] is T1, Prostaglandin D2 receptor. Kind of experiment: In vitro inhibition of [3H]- PGD-2 radioligand binding to prostaglandin D2 receptor on human platelet membrane.

SMILES strings stand for the structures. A value given as a limit tells only on which side of the number the result lay.

Take `O=C(O)CCC/C=C\C[C@@H]1[C@H]2CC[C@H](C2)[C@H]1NS(=O)(=O)c1ccc(/C=C/c2ccccc2)s1`: the IC50 (commonly the concentration that inhibits the measured activity by half) turned out to be 100 nM in experiment [1] and 90 nM in experiment [2].
As for `CC(C)(CC/C=C\C[C@@H]1[C@H]2CC[C@H](C2)[C@H]1NS(=O)(=O)c1ccc2oc3ccccc3c2c1)C(=O)O`, the figures for the IC50 in experiment [1] and in experiment [2] were 320 nM and 180 nM, respectively.
Take `O=C(O)CCC/C=C\C[C@@H]1[C@H]2CC[C@H](C2)[C@H]1NS(=O)(=O)c1ccccc1Br`: the IC50 in experiment [1] was determined as 340 nM; in experiment [2], 5300 nM.
The corresponding values for `O=C(O)CCC/C=C\C[C@@H]1[C@H]2CC[C@H](C2)[C@H]1NS(=O)(=O)c1ccc(Cc2ccccc2)cc1` are 650 nM and 5200 nM.
Regarding `O=C(O)CCC/C=C\C[C@@H]1[C@H]2CC[C@H](C2)[C@H]1NS(=O)(=O)c1ccc(/C=C/c2ccccc2)cc1`, the IC50 in experiment [1] is 180 nM; in experiment [2], 100 nM.
Turning to `O=C(O)CCCCCC[C@@H]1[C@H]2CC[C@H](C2)[C@H]1NS(=O)(=O)c1ccc2oc3ccccc3c2c1`, the IC50 in experiment [1] turned out to be 430 nM; in experiment [2], 120 nM.
Turning to `O=C(O)CCC/C=C\C[C@@H]1[C@H]2CC[C@H](C2)[C@H]1NS(=O)(=O)c1ccc(Oc2ccccc2)cc1`, the figures for the IC50 in experiment [1] and in experiment [2] were 570 nM and 680 nM, respectively.
The corresponding values for `O=C(O)CCC/C=C\C[C@@H]1[C@H]2CC[C@H](C2)[C@H]1NS(=O)(=O)c1ccc2c(c1)oc1ccccc12` are 160 nM and 22 nM.
In the same order, the values of `O=C(O)CCC/C=C\C[C@@H]1[C@H]2CC[C@H](C2)[C@H]1NS(=O)(=O)c1ccc2oc3ccc(O)cc3c2c1` are 250 nM and 200 nM.
In the same order, the values of `O=C(O)CCC/C=C\C[C@@H]1[C@H]2CC[C@H](C2)[C@H]1NS(=O)(=O)c1ccc(-c2ccc(C(F)(F)F)cc2)cc1` are 350 nM and 660 nM.
As for `COc1cc2c(cc1S(=O)(=O)N[C@@H]1[C@@H]3CC[C@@H](C3)[C@H]1C/C=C\CCC(C)(C)C(=O)O)oc1ccccc12`, the IC50 in experiment [1] came out at 320 nM; in experiment [2], 57 nM.
The corresponding values for `COc1cc2c(cc1S(=O)(=O)N[C@@H]1[C@@H]3CC[C@@H](C3)[C@H]1CC(=O)CCCCC(=O)O)oc1ccccc12` are 33 nM and 960 nM.
In the case of `CN(C)c1ccc2c(c1)oc1ccc(S(=O)(=O)N[C@@H]3[C@@H]4CC[C@@H](C4)[C@H]3C/C=C\CCCC(=O)O)cc12`, the values for the IC50 in experiment [1] and in experiment [2] were 170 nM and 36 nM, respectively.
The corresponding values for `O=C(O)CCC/C=C\C[C@@H]1[C@H]2CC[C@H](C2)[C@H]1NS(=O)(=O)c1cccc(-c2ccccc2)c1` are 280 nM and 670 nM.
Regarding `O=C(O)CCC/C=C\C[C@@H]1[C@H]2CC[C@H](C2)[C@H]1NS(=O)(=O)c1ccc(Nc2ccccc2)cc1`, the IC50 in experiment [1] amounted to 160 nM; in experiment [2] it was 330 nM.
Turning to `O=C(O)CCC/C=C\C[C@@H]1[C@H]2CC[C@H](C2)[C@H]1NS(=O)(=O)c1ccc2oc3cc([N+](=O)[O-])ccc3c2c1`, the half-maximal inhibitory concentration (IC50) in experiment [1] stood at 57 nM; in experiment [2] it was 550 nM.
In the case of `COc1ccc(S(=O)(=O)N[C@@H]2[C@@H]3CC[C@@H](C3)[C@H]2C/C=C\CCCC(=O)O)cc1`, the IC50 in experiment [1] is 390 nM; in experiment [2] it was more than 10000 nM.
The corresponding values for `O=C(O)CCC/C=C\C[C@@H]1[C@H]2CC[C@H](C2)[C@H]1NS(=O)(=O)c1ccc(-c2nnnn2-c2ccccc2)cc1` are 380 nM and 62 nM.
For `COc1ccc(S(=O)(=O)N[C@@H]2[C@@H]3CC[C@@H](C3)[C@H]2C/C=C\CCCC(=O)O)cc1[N+](=O)[O-]`, the IC50 in experiment [1] was 280 nM; in experiment [2] it was 5400 nM.
Consider `O=C(O)CCC/C=C\C[C@@H]1[C@H]2CC[C@H](C2)[C@H]1NS(=O)(=O)c1ccc(/C=C\c2ccccc2)cc1`, for which the IC50 in experiment [1] amounted to 180 nM; in experiment [2] it was 200 nM.
As for `O=C(O)CCC/C=C\C[C@@H]1[C@H]2CC[C@H](C2)[C@H]1NS(=O)(=O)c1ccc(-c2cc3ccccc3[nH]2)cc1`, the IC50 in experiment [1] was 210 nM; in experiment [2], 190 nM.
As to `O=C(O)CCC/C=C\C[C@@H]1[C@H]2CC[C@H](C2)[C@H]1NS(=O)(=O)c1ccc(/N=N/c2ccccc2)cc1`, the IC50 in experiment [2] stood at 25 nM.
In experiment [1], `O=C(O)CCC/C=C\C[C@@H]1[C@H]2CC[C@H](C2)[C@H]1NS(=O)(=O)c1ccc2cc(-c3ccccc3)[nH]c2c1` had a half-inhibitory concentration (IC50) of 71 nM.
For the compound `O=C(O)CCC/C=C\C[C@@H]1[C@H]2CC[C@H](C2)[C@H]1NS(=O)(=O)c1ccc(C(=O)Nc2ccccc2)cc1`, the concentration for half-maximal inhibition (IC50) is 86 nM in experiment [1] and 1100 nM in experiment [2].
In the same order, the values of `CS(=O)(=O)NC(=O)CCC/C=C\C[C@@H]1[C@H]2CC[C@H](C2)[C@H]1NS(=O)(=O)c1ccc2oc3ccccc3c2c1` are 32 nM and 42 nM.
In the same order, the values of `O=C(O)CCC/C=C\C[C@@H]1[C@H]2CC[C@H](C2)[C@H]1NS(=O)(=O)c1ccc(C#Cc2ccccc2)cc1` are 210 nM and 8.5 nM.
In the case of `O=C(O)CCC/C=C\C[C@@H]1[C@H]2CC[C@H](C2)[C@H]1NS(=O)(=O)c1ccc(CCc2ccccc2)cc1`, the IC50 in experiment [1] came out at 260 nM; in experiment [2] it was 550 nM.
In the same order, the values of `O=C(O)CCC/C=C\C[C@@H]1[C@H]2CC[C@H](C2)[C@H]1NS(=O)(=O)c1ccc(-c2ccccc2)s1` are 220 nM and 580 nM.
For the compound `COc1ccc2oc3ccc(S(=O)(=O)N[C@@H]4[C@@H]5CC[C@@H](C5)[C@H]4C/C=C\CCCC(=O)O)cc3c2c1`, the IC50 in experiment [1] amounted to 330 nM; in experiment [2], 34 nM.
The corresponding values for `O=C(O)CCC/C=C\C[C@@H]1[C@H]2CC[C@H](C2)[C@H]1NS(=O)(=O)c1ccc(-c2cccs2)s1` are 200 nM and 410 nM.
With `O=C(O)CCC/C=C\C[C@@H]1[C@H]2CC[C@H](C2)[C@H]1NS(=O)(=O)c1ccccc1-c1ccccc1`, the IC50 in experiment [2] was determined as 8600 nM. This lies in the single-digit micromolar range.
For `Cn1c(-c2ccccc2)cc2ccc(S(=O)(=O)N[C@@H]3[C@@H]4CC[C@@H](C4)[C@H]3C/C=C\CCCC(=O)O)cc21`, the values for the IC50 in experiment [1] and in experiment [2] were 190 nM and 380 nM, respectively.
In the same order, the values of `Cc1cc(C)c(S(=O)(=O)N[C@@H]2[C@@H]3CC[C@@H](C3)[C@H]2C/C=C\CCCC(=O)O)c(C)c1` are 130 nM and 5400 nM.
Compound `O=C(O)CCC/C=C\C[C@@H]1[C@H]2CC[C@H](C2)[C@H]1NS(=O)(=O)c1ccc2c(c1)Cc1ccccc1-2` came in with an IC50 in experiment [1] of more than 1000 nM.
As to `O=C(O)CCC/C=C\C[C@@H]1[C@H]2CC[C@H](C2)[C@H]1NS(=O)(=O)c1cc2oc3ccccc3c2cc1O`, the IC50 in experiment [1] is 180 nM; in experiment [2], 190 nM.
In the same order, the values of `O=C(O)CCC/C=C\C[C@@H]1[C@H]2CC[C@H](C2)[C@H]1NS(=O)(=O)c1ccc(NC(=O)c2ccccc2)cc1` are 120 nM and 6000 nM.
Regarding `O=C(O)CCCCC(=O)C[C@@H]1[C@H]2CC[C@H](C2)[C@H]1NS(=O)(=O)c1ccc2oc3ccccc3c2c1`, the IC50 worked out at 19 nM in experiment [1] and 680 nM in experiment [2].
In the same order, the values of `CC(C)(C)c1ccc(S(=O)(=O)N[C@@H]2[C@@H]3CC[C@@H](C3)[C@H]2C/C=C\CCCC(=O)O)cc1` are 720 nM and more than 10000 nM.
